Laboratory results as given in patent US20210002623A1, “AMINOPEPTIDASE AND ITS USES” (Centre national de la recherche scientifique, priority 2017, published 2021).

Key:
MjTET [1] = target: T1, MjTET (Methanocaldococcus jannaschii, UniProt Q57975); assay: Effect of inhibitors on MjTET activity (Leu-pNA hydrolysis); assay type: biochemical; settings: 5 mM Leu-pNA, 0.1 mM CoCl2, pH 8.5, 85° C., 5 min
T1 construct: made in house; host or cells: Escherichia coli ArcticExpress (DE3)-RIL
T1 sequence (Q57975 1-350): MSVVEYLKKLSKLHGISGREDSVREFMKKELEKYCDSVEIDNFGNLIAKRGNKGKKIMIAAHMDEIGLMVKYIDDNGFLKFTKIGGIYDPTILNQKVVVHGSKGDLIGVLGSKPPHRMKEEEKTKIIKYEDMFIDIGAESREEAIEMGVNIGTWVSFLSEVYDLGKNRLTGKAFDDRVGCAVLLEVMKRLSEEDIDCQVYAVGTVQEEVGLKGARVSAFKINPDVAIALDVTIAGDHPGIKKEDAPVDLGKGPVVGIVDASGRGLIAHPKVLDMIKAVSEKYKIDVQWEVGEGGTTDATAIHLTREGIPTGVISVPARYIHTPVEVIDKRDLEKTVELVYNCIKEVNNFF
Method: The inhibitory effect of EDTA, Amastatine and Bestatine was tested on the MjTET enzymatic activity. 4 μg/mL of MjTET were incubated with each inhibitor separately in the presence of 5 mM Leu-pNA, 50 mM CHES, 150 mM KCl, 0.1 mM CoCl2, pH 8.5 at 85° C. for 5 min. Three replicates (with inhibitor) and two controls (without inhibitor) were assayed for each experimental point.

MjTET [2] = target: T1, MjTET; assay: Effect of metal cations on MjTET activity; assay type: biochemical; settings: 5 mM Leu-pNA, pH 8.5, 75° C., 5 min
Method: The metal cations XCl2 were incubated at 0.1 mM concentration with 4 μg/mL of MjTET and 5 mM of Leu-pNA in 50 mM CHES, 150 mM KCl, pH 8.5 for 5 min at 75° C. To assess the effect of metal cations on MjTET activity, the enzymatic reaction was followed as described before.

SMILES: CC(C)C[C@H](NC(=O)[C@@H](O)[C@H](N)Cc1ccccc1)C(=O)O [bestatine]
- inhibition of MjTET LAP activity (MjTET [1]; 1 mM bestatine): completely inhibited

SMILES: CC(C)C[C@@H](N)[C@H](O)C(=O)N[C@H](C(=O)N[C@H](C(=O)N[C@@H](CC(=O)O)C(=O)O)C(C)C)C(C)C [amastatine]
- inhibition of MjTET LAP activity (MjTET [1]; 0.2 mM amastatine): completely inhibited

SMILES: [Cl-].[Cl-].[Co+2] [cobalt ions]
- effect on MjTET LAP activity (MjTET [2]; 0.1 mM metal cation): increase of LAP activity

SMILES: O=C(O)CN(CCN(CC(=O)O)CC(=O)O)CC(=O)O [EDTA]
- inhibition of MjTET enzymatic activity (MjTET [1]; 5 mM EDTA): completely inhibited

SMILES: [Cl-].[Cl-].[Zn+2] [ZnCl2]
- effect on MjTET LAP activity (MjTET [2]; 0.1 mM ZnCl2): significant inhibition
